# pIC50: −log10 of the molar value. Structures can show the parent of a compound that is named as a salt.
# Molecular target: T1, NaV1.7 (Rattus norvegicus, UniProt O08562)
# T1 construct: gene Scn9a; rat cDNA NaV1.7 (GenBank No. U79568), transiently expressed in HEK-293 cells
# Test: whole-cell patch-clamp, INa block in transfected HEK-293 cells
# Format: cell-based
# T1 sequence (O08562 whole entry): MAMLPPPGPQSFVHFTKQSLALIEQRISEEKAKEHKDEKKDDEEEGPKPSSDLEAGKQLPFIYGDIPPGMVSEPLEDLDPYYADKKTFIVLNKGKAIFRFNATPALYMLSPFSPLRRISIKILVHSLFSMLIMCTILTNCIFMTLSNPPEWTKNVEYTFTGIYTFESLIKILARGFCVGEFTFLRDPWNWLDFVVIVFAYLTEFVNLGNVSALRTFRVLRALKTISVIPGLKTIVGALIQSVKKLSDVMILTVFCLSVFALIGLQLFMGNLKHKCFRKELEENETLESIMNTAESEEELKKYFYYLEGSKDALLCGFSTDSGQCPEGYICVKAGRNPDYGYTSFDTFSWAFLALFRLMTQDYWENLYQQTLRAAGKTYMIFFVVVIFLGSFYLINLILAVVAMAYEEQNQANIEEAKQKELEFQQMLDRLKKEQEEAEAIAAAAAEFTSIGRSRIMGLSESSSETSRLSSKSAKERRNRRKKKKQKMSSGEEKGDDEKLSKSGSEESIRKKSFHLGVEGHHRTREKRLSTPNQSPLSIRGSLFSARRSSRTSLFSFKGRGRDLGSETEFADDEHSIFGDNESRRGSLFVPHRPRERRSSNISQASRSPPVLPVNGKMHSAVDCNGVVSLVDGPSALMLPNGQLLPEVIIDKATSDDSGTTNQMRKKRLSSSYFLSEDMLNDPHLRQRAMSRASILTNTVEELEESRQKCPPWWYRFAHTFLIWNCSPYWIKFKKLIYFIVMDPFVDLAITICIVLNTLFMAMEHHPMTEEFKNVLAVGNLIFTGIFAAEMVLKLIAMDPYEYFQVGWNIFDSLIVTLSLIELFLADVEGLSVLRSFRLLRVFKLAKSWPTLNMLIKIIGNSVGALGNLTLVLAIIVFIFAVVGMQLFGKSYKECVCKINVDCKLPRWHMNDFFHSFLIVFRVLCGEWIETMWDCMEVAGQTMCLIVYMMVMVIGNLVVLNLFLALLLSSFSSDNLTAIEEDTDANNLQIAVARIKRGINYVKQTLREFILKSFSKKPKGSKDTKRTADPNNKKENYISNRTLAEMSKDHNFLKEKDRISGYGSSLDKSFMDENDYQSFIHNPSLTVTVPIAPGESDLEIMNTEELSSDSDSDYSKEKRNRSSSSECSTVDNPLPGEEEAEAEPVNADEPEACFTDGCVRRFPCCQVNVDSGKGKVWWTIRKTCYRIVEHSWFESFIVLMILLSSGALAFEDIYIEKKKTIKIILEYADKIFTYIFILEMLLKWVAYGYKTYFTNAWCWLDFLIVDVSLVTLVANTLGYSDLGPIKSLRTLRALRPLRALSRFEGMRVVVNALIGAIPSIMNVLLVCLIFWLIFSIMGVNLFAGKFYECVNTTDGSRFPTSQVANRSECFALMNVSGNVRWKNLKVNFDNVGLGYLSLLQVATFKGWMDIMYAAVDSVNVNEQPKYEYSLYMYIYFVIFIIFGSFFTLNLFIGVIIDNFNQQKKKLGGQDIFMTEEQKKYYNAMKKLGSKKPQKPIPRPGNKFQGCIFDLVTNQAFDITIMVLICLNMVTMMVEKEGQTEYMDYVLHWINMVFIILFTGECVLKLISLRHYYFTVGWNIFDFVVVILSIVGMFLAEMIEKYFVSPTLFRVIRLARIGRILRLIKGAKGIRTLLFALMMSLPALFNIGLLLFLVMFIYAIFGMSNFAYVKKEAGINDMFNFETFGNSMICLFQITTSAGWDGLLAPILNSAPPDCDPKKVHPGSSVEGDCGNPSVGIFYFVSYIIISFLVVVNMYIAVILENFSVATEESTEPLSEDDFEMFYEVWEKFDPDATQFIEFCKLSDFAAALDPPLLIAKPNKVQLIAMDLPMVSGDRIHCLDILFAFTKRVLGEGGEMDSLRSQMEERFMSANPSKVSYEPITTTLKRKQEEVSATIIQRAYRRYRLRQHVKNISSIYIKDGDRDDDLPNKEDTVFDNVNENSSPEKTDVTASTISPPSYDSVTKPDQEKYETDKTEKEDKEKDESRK
smiles,measurement,value
"c1ccc(C(CCCNCCCN2CCCCC2)c2ccccc2)cc1 [SV188, 4,4-Diphenylbutyl [3-(piperidin-1-yl)propyl]amine Hydrochloride]",pIC50,5.44

# Source: article PMC10216335, “Voltage-Gated Sodium Channel NaV1.7 Inhibitors with Potent Anticancer Activities in Medullary Thyroid Cancer Cells” (Cancers, 2023)
